In patent US5981517A, “Androstene derivatives” (priority 1997, dated 1999):

Tests used:
thymi = test system: thymi; design: species or system male Sprague-Dawley rats; details: rat, in vivo, sc
Protocol: Several further studies were undertaken to determine the effects of a selected compound of the invention and prior art steroids on thymi weights in rats when the drugs were systemically administered. In each of these studies, male Sprague-Dawley rats were used. The test compounds were suspended in 0.5% CMC (carboxymethylcellulose) and injected subcutaneously once daily for three days. On the fifth day (48 hours following the last treatment), the animals were sacrificed and the thymi weights were recorded. Body weight gains were measured 24 hours after the last treatment. From the test results, the TED40 's (thymolytic effective doses, that is, doses required to achieve 40% inhibition of thymi weight) and relative potencies of a representative compound of the invention and reference steroids were calculated. […] It is evident that the higher the inhibition of thymus activity at a given dose, the more toxic the compound is.

granuloma / thymolysis = experiment: Comparison of local effect and systemic side-effects (therapeutic index); type: in vivo, rat; details: granuloma relative potency / thymolysis relative potency
Protocol: The test compound was dissolved in acetone and aliquots of varying concentrations were injected into cotton pellets. The pellets were dried and then one pellet was implanted beneath the skin of each test rat. Six days later, the animals were sacrificed and the granulation tissue (granuloma) which formed in and around the implanted pellet was removed, dried and weighed. In addition, the thymi and adrenals were removed and weighed.
Several further studies were undertaken to determine the effects of a selected compound of the invention and prior art steroids on thymi weights in rats when the drugs were systemically administered. In each of these studies, male Sprague-Dawley rats were used. The test compounds were suspended in 0.5% CMC (carboxymethylcellulose) and injected subcutaneously once daily for three days. On the fifth day (48 hours following the last treatment), the animals were sacrificed and the thymi weights were recorded. Body weight gains were measured 24 hours after the last treatment.
The ED50 's calculated for the local cotton pellet granuloma assay and the TED40 's calculated on the basis of thymus inhibition testing as described above were used to arrive at relative potency and a therapeutic index for a representative species of the invention as compared to prior art steroids.

[1] = test system: granulation tissue (granuloma); type: in vivo, rat
Protocol: The test compound was dissolved in acetone and aliquots of varying concentrations were injected into cotton pellets. The pellets were dried and then one pellet was implanted beneath the skin of each test rat. Six days later, the animals were sacrificed and the granulation tissue (granuloma) which formed in and around the implanted pellet was removed, dried and weighed. In addition, the thymi and adrenals were removed and weighed. The ability of a compound to inhibit granuloma formation in this test is a direct indication of local anti-inflammatory activity; thus, the lower the weight of granulation tissue, the better the anti-inflammatory activity.

[2] = test system: right ear of each mouse (croton oil challenge); experiment: Ear edema test (croton oil, mice); type: in vivo; details: 6 h after croton oil challenge
Protocol: In treatment groups of mice, selected amounts of the test compound were dissolved in acetone containing 5% croton oil; then, 50 microliters of the solution were applied to the inner surface of the right ear of each mouse. A control group of mice was identically treated with vehicle only, i.e., 5% croton oil in acetone. Six hours after croton oil challenge, the thickness of each ear was measured.

skin = experiment: Skin weight test, 10 days of topical treatment in the rat; type: in vivo, Male Sprague-Dawley rats; details: rat, in vivo
Protocol: Male Sprague-Dawley rats, weighing about 210 g, were lightly anesthetized with ether, shaved and marked in three areas on each flank with intradermally injected blue ink. […] Treated control animals received daily topical administration of the vehicle (DMF) alone. Solvent and test compound solutions (10 μL) were applied once daily for 10 consecutive days, with […] necessary. On the eleventh day, the animals were sacrificed, their skins were removed and 16 mm diameter plugs were punched out from each area. The plugs were scraped carefully to remove subcutaneous fat and muscle, then they were blotted on filter paper and weighed. Skin atrophy is a known side effect associated with topically applied anti-inflammatory steroids.

## CCCCC(=O)O[C@]1(C(=O)CO)[C@@H](C)C[C@H]2[C@@H]3CCC4=CC(=O)C=C[C@]4(C)[C@@]3(F)[C@@H](O)C[C@@]21C [Betamethasone 17-valerate, reference compound]
thymi
  Thymolysis, Relative Potency at ED40 Level (b): 100
Granuloma / thymolysis
  Therapeutic Index (a/b): 1.0

## COC(=O)[C@@]1(OC(=O)C(Cl)Cl)[C@H](C)C[C@H]2[C@@H]3CCC4=CC(=O)C=C[C@]4(C)[C@@]3(F)[C@@H](O)C[C@@]21C [Compound I, methyl 17α-dichloroacetoxy-9α-fluoro-11β-hydroxy-16α-methylandrosta-1,4-dien-3-one-17β-carboxylate]
[1]; cotton pellet, 6 days
  local anti-inflammatory activity (inhibition of granuloma formation): significant local anti-inflammatory activity
[1]; rat, in vivo
  systemic effect: relatively much lower systemic effect
[2]; 10 μg/mL
  inhibition of swelling: 37.4%
[2]; 100 μg/mL
  inhibition of swelling: 92.1%
thymi
  Thymolysis, Relative Potency at ED40 Level (b): 156
skin
  Wet skin weight, Treated, Decrease: 11.6%
  Wet skin weight, Untreated, Decrease: 11.2%
Granuloma / thymolysis
  Therapeutic Index (a/b): 7.10
